Test results as given in patent EP0108147B1, “Use of a protoberberine alkaloid and composition containing same” (MAROKO, Peter R., priority 1982, dated 1983).

What was measured:
[1] = test system: canine; assay: Effect of berberine after intravenous propanolol, 12 canine experiments; assay type: in vivo; settings: intravenous propanolol (1 mg/kg)
Text: The mechanism of berberine is dissimilar to that of beta-adrenergic agonists, which while increasing contractility, increase heart rate also. […] Berberine differs also from digitalis because it reduces peripheral resistance in the non-failing heart.

[2] = Microneucleus test with Ames test on urine for mutagenic potential
[3] = test system: trained conscious dogs; assay: Protocol F: multiple gated radionuclide ventriculography (MUGR), ejection fraction in conscious dogs without failing heart; assay type: in vivo
Description: To determine further the effects of berberine on patients, experiments were carried out on conscious dogs (Protocol F) and the measurement of left ventricular performance was assessed atraumatically using the multiple gated radionuclide ventriculography (MUGR) similarly to what is done in patients. The multiple gated radionuclide ventriculography is used in patients to assess their cardiac (i.e. left ventricular) performance by analyzing in an. atraumatic manner, the ejection fraction (EF) of the left ventricle. This technique substituted the analysis of ejection fraction by contrast angiography since the latter can be done only in the catheterization laboratory with the patient submitted to the introduction of catheters into his arteries and left ventricular cavity as well as an injection of a radio-opaque dye. MUGR consists in using red blood cells labelled with stannous radioactive technetium. These red blod cells can be labelled either in vivo or in vitro prior to injection. The blood that is now emitting gamma radiation can be detected by an external gamma camera. This device can sum many cycles of the heart beat obtaining an average cycle. Then this cycle is divided in time intervals so that, as an example, the end systolic and the end diastolic frames can be identified. Ejection fraction is the end distolic minus the end systolic volumes divided by the end diastolic volume. It indicates therefore the pumping effectiveness of the left ventricle since it measures the fraction (or the percent if multiplied by 100) of the volume of blood that is expelled from the left ventricular cavity. Experiments were carried out in trained conscious dogs. 14.8.108 Bg (40 mCi) of […] used to label red blood cells that were then injected intravenously. […] The images were acquired using fixed density of the left ventricle. They were measured in quadruplicate and averaged. The external gamma camera used was Ohio Nuclear (model VIP 560).

[4] = test system: dogs with acute left ventricular failure; assay: MUGR ejection fraction in dogs with acute left ventricular failure after coronary embolization; assay type: in vivo; settings: for EF: 0.2 mg/Kg/min
Description: Nevertheless, to verify the response of dogs with acute heart failure with this sophisticated technique, this condition was provoked by previous embolization into the left coronary artery (as described below in protocol HV). thereafter, the effect of berberine infusion was analyzed after embolization. […] Berberine was infused in a rate of 0.2 mg/Kg/min for 30 minutes and MUGR was repeated after 2, 15, 22 and 28 minutes of infusion.
Six dogs were studied using this technique (Table XV). […] The thirty minute infusion of berberine (0.2 mg/Kg/min) was administered. During this period four radionuclide ventriculographies were obtained and averaged. After discontinuation of the infusion again four radionuclide ventriculographies were obtained in the next thirty minutes and averaged.

[5] = test system: patients with heart failure; assay: Intravenous berberine in patients with heart failure, catheterization laboratory; assay type: in vivo
Description: Berberine HCI was used in patients with heart failure. […] The observations were done in a catheterization laboratory. […] Heart rate decreased in two patients and increased in one. On the average it decreased from 82 to 76 beats/min after 0.02 mg/kg/min and to 79 after 0.2 mg/kg/min. […] It is very impressive that in one patient it fell from 21 to 11 and then to 9 mmHg. Aortic systolic pressure fell from 115 mmHg to 104 and then to 108 mmHg. Aortic diastolic pressure fell from 78 to 68 and then to 67 mmHg. Aortic mean pressure fell from 93 to 80 to 84 mmHg. This is a mild fall in mean aortic pressure. […] These are very marked increases in cardiac output and cardiac index. […] These increases are again very remarkable. […] Thus, the 5 last […] indicated the profound aemelioration in ventricular performance. […] Contractility was evaluated by the indices LV-V max (left ventricular maximal shortening velocity of the contractile element) and LV-VPM (left ventricular peak measured shortening velocoty of the contracile elements).

[6] = Solubility; assay type: physicochemical
Description: The solubility of berberine and other similar compounds of the invention may be altered by changing the pH of the solution having each compound its optimum of pH as far as solubility.
The protoberine alkaloids are administered in the manner most appropriate under the circumstances. Administration may be oral, sublingual, subcutaneous, transdermal or intramuscular injection. The compounds may be administered by intravenous route, parenterally.

[7] = LD50; settings: cat, in vivo
[8] = test system: NaK-ATPase; settings: Cohen et al., Biochem. Pharmacol. 27: 2555-2558, 1978; cited from earlier work
[9] = LD50, intravenous bolus; settings: rat, in vivo
[10] = test system: chronically instrumented conscious dogs; assay: Oral administration in chronically instrumented conscious dogs; assay type: in vivo
[11] = second dog (Figure VI), after 15 minutes

COc1ccc2cc3[n+](cc2c1OC)CCc1cc2c(cc1-3)OCO2 [berberine]
effect on contractility, arterial pressure or heart rate after beta blockade [1]: did not change the effect of berberine
mutagenic potential [2]: negative
ejection fraction (EF), average ([3]; one dog, after first infusion): 44 ± 2%
ejection fraction (EF), average ([3]; one dog, after second infusion): 40 ± 2%
increase of EF versus the pre-berberine period ([3]; one dog, first infusion): 33%
ejection fraction (EF) ([3]; one dog, first infusion 0.7 mg/Kg/min 5 minutes, 1st reading (5 min), pre-berberine 33 ± 2): 46%
ejection fraction (EF) ([3]; one dog, first infusion, 2nd reading (15 min)): 47%
ejection fraction (EF) ([3]; one dog, first infusion, 3rd reading (30 min)): 44%
ejection fraction (EF) ([3]; one dog, first infusion, 4th reading (45 min)): 38%
ejection fraction (EF) ([3]; one dog, second infusion, 1st reading): 46%
ejection fraction (EF) ([3]; one dog, second infusion, 2nd reading): 37%
ejection fraction (EF) ([3]; one dog, second infusion, 3rd reading): 40%
ejection fraction (EF) ([3]; one dog, second infusion, 4th reading): 38%
ejection fraction ([3]; second dog (Figure VI), 0.7 mg/Kg/min for 15 minutes, 1st reading, from 50): 54%
ejection fraction ([3]; second dog (Figure VI), 2nd reading): 65%
ejection fraction [3, 11]: 70%
increase of ejection fraction [3, 11]: 40%
EF ([4]; another dog, at 2, 39 after embolization): 60%
EF ([4]; another dog, at 15): 62%
EF ([4]; one dog, 2 minutes of infusion, 27 after embolization): 35%
EF ([4]; one dog, 15 minutes): 37%
EF ([4]; one dog, 22 minutes): 39%
EF ([4]; one dog, 28 minutes): 38%
increase of EF ([4]; six dogs): ~50%
left ventricular ejection fraction (EF) ([4]; six dogs, during 30 minute infusion 0.2 mg/Kg/min, from 27 ± 3): 40 ± 3%
EF after the discontinuation of infusion ([4]; six dogs, next half an hour): continued to be significantly elevated
side effects ([5]; 0.002 mg/kg/min 30 minutes then 0.02 mg/kg/min 30 minutes, 3 patients): without untoward side effects
side effects ([5]; 0.2 mg/kg/min, one patient): without untoward side effects
side effects ([5]; 3 patients with cardiomyopathy, 0.02 then 0.2 mg/kg/min, 15 minutes each): None of the patients had side effects
cardiac index ([5]; after 0.02 mg/kg/min, from 2.9): 3.7 fiters/min/m^2
cardiac output ([5]; after 0.02 mg/kg/min, from 5.1): 6.6 L/min
Left ventricular end diastolic pressure ([5]; after 0.02 mg/kg/min, from 22): 16 mmHg
ejection fraction ([5]; after 0.02 mg/kg/min, from 32): 36%
stroke index ([5]; after 0.02 mg/kg/min, from 36): 50 ml/m^2
Stroke volume ([5]; after 0.02 mg/kg/min, from 62): 89 mL
Aortic diastolic pressure ([5]; after 0.02 mg/kg/min, from 78): 68 mmHg
Heart rate, average ([5]; after 0.02 mg/kg/min, from 82): 76 beats/min
Aortic mean pressure ([5]; after 0.02 mg/kg/min, from 93): 80 mmHg
Aortic systolic pressure ([5]; after 0.02 mg/kg/min, from 115): 104 mmHg
Left ventricular systolic pressure ([5]; after 0.02 mg/kg/min, from 116): 106 mmHg
Calculated systemic peripheral resistance ([5]; after 0.02 mg/kg/min, from 1339): 883 10^-5N·S·cm^-5
Aortic diastolic pressure ([5]; after 0.2 mg/kg/min): 67 mmHg
Aortic mean pressure ([5]; after 0.2 mg/kg/min): 84 mmHg
Aortic systolic pressure ([5]; after 0.2 mg/kg/min): 108 mmHg
Calculated systemic peripheral resistance ([5]; after 0.2 mg/kg/min): 794 10^-5N·S·cm^-5
Heart rate, average ([5]; after 0.2 mg/kg/min): 79 beats/min
Left ventricular end diastolic pressure ([5]; after 0.2 mg/kg/min): 15 mmHg
Left ventricular systolic pressure ([5]; after 0.2 mg/kg/min): 110 mmHg
Stroke volume ([5]; after 0.2 mg/kg/min): 102 mL
cardiac index ([5]; after 0.2 mg/kg/min): 4.2 fiters/min/m^2
cardiac output ([5]; after 0.2 mg/kg/min): 7.4 L/min
ejection fraction ([5]; after 0.2 mg/kg/min): 40%
stroke index ([5]; after 0.2 mg/kg/min): 58 ml/m^2
LV-VPM (left ventricular peak measured shortening velocoty of the contracile elements) ([5]; after berberine, from 0.7): 0.9
LV-V max (left ventricular maximal shortening velocity of the contractile element) ([5]; after berberine, from 0.9): 1.1
Left ventricular end diastolic pressure ([5]; one patient, after 0.02 mg/kg/min, from 21): 11 mmHg
Left ventricular end diastolic pressure ([5]; one patient, after 0.2 mg/kg/min): 9 mmHg
solubility as a function of pH [6]: increases when pH is lowered towards acidity
solubility in sugar solutions [6]: soluble (among others) in sugar solutions
LD50 [7]: ~55 mg/kg
inhibition of NaK-ATPase activity [8]: inactive
LD50 [9]: ~55 mg/kg

COc1cc2c(cc1O)C[C@H]1c3cc(O)c(OC)cc3CCN1C2 [coreximine]
oral effects compared with berberine ([10]; dog, in vivo, po): more marked than those of berberine
increase of LV dP/dt ([10]; oral 5 mg/kg twice daily, after the first day): 25%
